Results: PMC3602653, “The brain slice method for studying drug distribution in the CNS” (Fluids and Barriers of the CNS, 2013)

Columns and labels:
[1] = Brain slice method, unbound volume of distribution in the brain (mouse); details: NMRI mouse brain slices, 5 h incubation at 37°C; mean (standard deviation)
Excerpt: (§1) Drug-naïve male Sprague–Dawley 250–300 g rats and Naval Medical Research Institute (NMRI) 25–30 g mice were used (Taconic, Lille Skensved, Denmark).
(§2) The composition of artificial cerebrospinal fluid or extracellular fluid (aECF) is crucial. […] Ascorbic acid is used as a natural free-radical scavenger to protect the cell membranes from lipid peroxidation and the brain slices from swelling [21].
(§3) When deciding on the compounds of each cassette, the pKa values of the compounds should be taken into account. Because high concentrations of weak bases can increase the pH of the acidic intracellular compartments, the extent of lysosomal trapping of a weak base could be affected by the existence of another weak base. […] Consequently, it is recommended that the final aECF concentration of each studied compound in the cassette should be 100–200 nM and the total concentration of the studied compounds should not exceed 1 μM [18].
(§4) Drug-naïve rats/mice are anesthetized with inhalation anesthesia using 5% isoflurane. When deep anesthesia is reached, up to 10 ml of blood (rats) is collected intracardially. The animal is then decapitated and the skull quickly opened. The isolated brain is immediately placed into blank ice-cold aECF saturated with oxygen. In our experience, the brains should be sliced within 15–20 minutes of harvesting to retain their viability.
(§5) After discarding the first one or two brain slices, 6 (rat brain) or 10 (mouse brain) consecutive 300 μm brain slices are cut on a coronal plane, starting approximately 1.7 mm anterior to the bregma (rostral striatum).
(§6) The incubation-equilibration process is started by gently transferring the 6 (rat) or 10 (mouse) brain slices from the storage beaker (using a micro double-ended spatula) into one 45 mm high, 80 mm diameter, flat-bottomed glass beaker (Duran Group, VWR, Sweden) containing 15 ml (rat) or 10 ml (mouse) of the aECF containing the selection of drugs to be investigated (Figure 1C). The beaker is then filled with humidified 100% oxygen over the aECF and covered with a custom-fabricated lid (Figure 1D) composed of a Teflon fluorinated ethylene-propylene (FEP) film (50 Å, 12.7 μm thick; DuPont, Katco Ltd, UK) as designed by Potter and DeMarse with minor modifications [23]. A “blank” beaker is also incubated in parallel to check stability of the compounds added into the buffer.
(§7) Finally, the beaker is placed inside the small plastic box in the incubated shaker (e.g. MaxQ4450 Thermo Fisher Scientific, NinoLab, Sweden) for 5 h at 37°C (Figure 1E). Control of the temperature by an external thermometer is recommended. A rotation speed of 45 rpm and oxygen flow of about 75–80 ml per minute through a glass frit apparatus appear sufficient.
(§8) Since the unbound drug concentration in the brain slice interstitial fluid at equilibrium is taken to be equal to the drug concentration in the aECF in the beaker, the presence of any minor debris from the brain tissue should be avoided in the sampled aECF after the 5 h incubation. To achieve this, the beaker needs to sit still for 5 minutes after finishing the incubation before sampling the aECF.

[2] = Brain slice method, unbound volume of distribution in the brain (rat); type: in vitro ADME; details: SD rat brain slices, 5 h incubation at 37°C; mean (standard deviation)
Excerpt: as §1, §2, §3, §4, §5, §6, §7, §8

[3] = Unbound brain-to-plasma concentration ratio (Kp,uu,brain), BBB net flux, from Kp,brain, Vu,brain and fu,plasma; details: Kp,brain corrected for brain tissue uptake (Vu,brain from brain slice method) and plasma protein binding (fu,plasma)
Excerpt: It has been proposed by Fridén et al. that in vitro determination of Vu,brain in combination with in vivo determination of the total brain-to-plasma concentration ratio (Kp,brain) and in vitro determination of the fraction of unbound drug in plasma (fu,plasma) would allow rapid evaluation of unbound brain-to-plasma concentration ratio (Kp,uu,brain) (Figure 2). Moreover, combining Vu,brain with fu,brain would allow estimation of the unbound intracellular-to-extracellular concentration ratio (Kp,uu,cell). It is essential to emphasize that, in terms of predicting Cu,brainISF or Kp,uu,brain, rank ordering of compounds with respect to Vu,brain is futile, since there is no causal relationship.
Complex evaluation of the abovementioned neuropharmacokinetic parameters gives insight to drug distribution in the brain. For instance, analogue of γ-aminobutyric acid gabapentin has Kp,brain equal to 0.64 [26]. However, after correction of Kp,brain for brain tissue uptake (using Vu,brain derived from the brain slice method) and plasma protein binding (using fu,plasma) the BBB net flux was estimated as a 0.14 meaning that only 14% of unbound drug in plasma is passing the BBB. Moreover, after passing BBB gabapentin (substrate to the large neutral amino acid transporter) tends to accumulate in the cells as it could be judged from Kp,uu,cell equal to 4.55 [6].

[4] = cited from earlier work
[5] = cited from earlier work; remark: listed apart in the source

| SMILES | Vu,brain [1] | Vu,brain [2] | Kp uu [3] | Kp,uu,cell (unbound intracellular-to-extracellular concentration ratio) [4] | Kp,brain (total brain-to-plasma concentration ratio) [5] |
| --- | --- | --- | --- | --- | --- |
| CC(=O)O[C@@]12CO[C@@H]1C[C@H](O)[C@@]1(C)C(=O)[C@H](O)C3=C(C)[C@@H](OC(=O)[C@H](O)[C@@H](NC(=O)OC(C)(C)C)c4ccccc4)C[C@@](O)([C@@H](OC(=O)c4ccccc4)[C@H]21)C3(C)C [Docetaxel] | 796 (177) ml·g brain^-1 | 777 (217) ml·g brain^-1 |  |  |  |
| NCC1(CC(=O)O)CCCCC1 [Gabapentin] | 4.22 (0.93) ml·g brain^-1 | 4.49 (0.29) ml·g brain^-1 | 0.14 | 4.55 | 0.64 |
| COc1ccc2c(c1)c(CC(=O)O)c(C)n2C(=O)c1ccc(Cl)cc1 [Indomethacin] | 12.0 (1.8) ml·g brain^-1 | 14.1 (1.8) ml·g brain^-1 |  |  |  |
| Fc1ccc([C@@H]2CCNC[C@H]2COc2ccc3c(c2)OCO3)cc1 [Paroxetine] | 596 (97) ml·g brain^-1 | 714 (72) ml·g brain^-1 |  |  |  |
| CSc1ccc2c(c1)N(CCC1CCCCN1C)c1ccccc1S2 (stereo not shown) [Thioridazine] | 1930 (170) ml·g brain^-1 | 2650 (232) ml·g brain^-1 |  |  |  |
